Literature values, collected in patent US20110183941A1 (priority 2010, published 2011).

Details: at room temperature

Question: Which solubility does the source give for `O=C(O)CNCP(=O)(O)O` [glyphosate] here?
Answer: 1.5%
